# Results as given in US12527788B2, “Defining RNA-small molecule affinity landscapes enables design of a small molecule inhibitor of an oncogenic non-coding RNA” (University of Florida Research Foundation, Incorporated, priority 2017, dated 2026).
# Target: AT-rich DNA hairpin
# Test: In solution fluorescence-based binding affinity measurement
# Details: not given
# Source text: It has been difficult to identify compounds that are heterocyclic in nature that selectively recognize RNA over DNA.^5 Thus, to further gain insight into the selectivity of our RNA motif-small molecule interactions, we compared the measured affinities for selected RNA motifs to the affinities of the ligands for an AT-rich DNA hairpin, a common target of small molecules similar to those shown in FIG. 1. […] This alteration reduces DNA affinity because key stacking and hydrogen bonding interactions are not possible. […] Thus, the interactions selected via 2DCS are RNA-selective.
# (§1) Binding Affinity Measurements: An in solution, fluorescence-based assay was used to determine binding affinities by monitoring the change in fluorescence intensity of 1-FL (or 2-FL/3-FL/4-FL) as a function of RNA concentration as described previously.^18 Briefly, the RNA of interest was folded in 1× Folding Buffer (8 mM Na2HPO4, pH 7.0, 185 mM NaCl and 1 mM EDTA) by heating at 60° C. for 5 min followed by slowly cooling to room temperature on the bench top. Then, the FL-conjugated compound was added into the RNA solution to a final concentration of 100 nM. Serial dilutions were then completed using 1× Folding Buffer supplemented with 100 nM FL-conjugated compound. The solutions were incubated at room temperature for 30 min and then transferred to a well of a black 384-well plate. Fluorescence intensity was measured using a Bio-Tek FL×800 plate reader with an excitation wavelength of 485/20 nm and an emission wavelength of 528/20 nm. The change in fluorescence intensity as a function of the concentration of RNA was fit to equation 3:^9 I=I0+0.5 Δε{([FL]0+[RNA]0 +Kd)−(([FL]0+[RNA]0+Kd)^2−4[FL]0[RNA]0)^1/2} (3) where I is the observed fluorescence intensity; I0 is the fluorescence intensity in the absence of RNA; Δε is the difference between the fluorescence intensity in the absence of RNA and in the presence of infinite RNA concentration; [FL]0 is the concentration of compound; [RNA]0 is the concentration of the selected RNA; and Kd is the dissociation constant.
row,Kd [µM],SMILES
1,> 100,CN1CCN(c2ccc(-c3ccc4nc(-c5ccc(OCCCC(=O)NCCCN=[N+]=[N-])cc5)[nH]c4c3)cc2)CC1 [Compound 1]
2,> 100,Cc1cc(-c2nc3ccc(-c4ccc(N5CCN(C)CC5)cc4)cc3[nH]2)cc(C)c1OCCCC(=O)NCCCN=[N+]=[N-] [Compound 2]
3,> 100,CC(C)c1cc(-c2nc3ccc(-c4ccc(N5CCN(C)CC5)cc4)cc3[nH]2)cc(C(C)C)c1OCCCC(=O)NCCCN=[N+]=[N-] [Compound 3]

# Target: selected RNA motifs
# Test: as above
# Details: read-out: Average Kd of Selected RNA Binders
# Description: Bound RNA motifs for each compound were harvested from the array surface, amplified, and identified by using high throughput sequencing (RNA-seq). Highly abundant RNAs in the sequencing data were then subjected to binding measurements. Typically, those RNAs that were highly enriched bound to the small molecules with affinities (Kds) that ranged from 1 to 10 μM (FIG. 2 and Table 1) while binding to the starting libraries was not saturable. These affinities are promising for binding RNA, as it has been difficult to acquire low micromolar affinity with compounds of this low molecular weight. In fact, RNAs that have undergone Darwinian evolution to bind small molecules, namely riboswitches, often bind their cognate ligand at […] concentrations;^30-33 bioactive compounds that mimic riboswitch ligands bind with similar affinities.^30,34
# as §1
row,Kd [µM],SMILES
1,16 ± 9,CN1CCN(c2ccc(-c3ccc4nc(-c5ccc(OCCCC(=O)NCCCN=[N+]=[N-])cc5)[nH]c4c3)cc2)CC1 [Compound 1]
2,7 ± 5,Cc1cc(-c2nc3ccc(-c4ccc(N5CCN(C)CC5)cc4)cc3[nH]2)cc(C)c1OCCCC(=O)NCCCN=[N+]=[N-] [Compound 2]
3,8 ± 4,CC(C)c1cc(-c2nc3ccc(-c4ccc(N5CCN(C)CC5)cc4)cc3[nH]2)cc(C(C)C)c1OCCCC(=O)NCCCN=[N+]=[N-] [Compound 3]
